How the values were obtained:
carragenin-induced edema = assay: Carragenin-induced edema test (Winter); assay type: in vivo, rat
Description: This effect was measured with an experimental model reproducing acute inflammation in rats: the carragenin-induced edema test according to C.

in vivo [1] = conditions: mouse, mice
gastric mucosa = assay: Gastric tolerance (ulcerogenic activity); assay type: in vivo, male Wistar rats; conditions: 4 days; for Mean Severity: scale 0-5; for Gastric Damage index: vehicle 8
Description: This was studied by conducting tests of ulcerogenic activity in male Wistar rats, weighing 180 g on the average, in groups of 10 animals each. Three doses of each substance were given, and one group of animals was treated with vehicle only in a volume of 10 ml/kg bodyweight. Each dose was given orally for four consecutive days; on the fifth day, the rats were killed and autopsied. The ulcerogenic effect was assessed according to the following scale:
(1) each hemorrhage point ≥1 mm was evaluated as 1 lesion
(2) hemorrhage points smaller than 1 mm were counted as follows:
(b) from 1 to 19:2 lesions
(c) from 1 to 29:3 lesions
(2) gastric mucosa irritation: 1
(3) hemorrahge points <1 mm: 2
(4) hemorrhage points between 1 and 3 mm: 3
(5) hemorrhage points >3 mm: 4
This scale was used to calculate the following gastric damage index: [formula]

[2] = test system: rat platelet-rich plasma (ADP-induced platelet aggregation); assay: Anti-platelet aggregation activity in vitro (Born's method), rat platelet-rich plasma, ADP-induced; assay type: cell-based
Description: Preparations (A), (B), (C), (D), (E) and (F) were administered "in vivo" orally and/or parenterally in 0.5% carboxymethylcellulose suspensions in physiological saline at neutral pH. When tested "in vitro", they were finely dispersed in neutral pH physiological saline.
This was studied "in vitro" following Born's method (Born G. W. R., Nature, 194, 937 (1962)) and inducing platelet aggregation with ADP.
Platelet-rich plasma was obtained by centrifugation for 10 minutes at 2,000 rpm of 9 parts rat blood to 1 part 3.13% sodium citrate solution. In performing the aggregation test, 0.2 ml of platelet rich plasm was mixed with a 0.9% NaCl solution to which the test substance was added to a final volume of 0.6 ml; the resulting mixture was incubated at 27° C. for 3 minutes. After inducement with ADP, aggregation was measured continuously with an Elvi 840 Aggregometer (Elvi Logos-Milan) to follow its course. The anti-aggregant effects were determined from the difference in the light transmission of the sample with respect to an ADP control.
Table I reports the platelet aggregation inhibition using different doses of the test compounds at a constant ADP concentration.

Solubility = assay type: physicochemical; conditions: common organic solvents
in vivo [3] = conditions: rat, rats
[4] = ADP 2 μmol/l, dose 1 V/ml (Table II)
[5] = ADP 5 μmol/l, dose 1 V/ml (Table II)

Cc1cc(CC(=O)OCCn2cnc3c2c(=O)n(C)c(=O)n3C)n(C)c1C(=O)c1ccc(Cl)cc1 [(B), 1,4-Dimethyl-5-p-chlorobenzoylpyrrol-2-acetate of 7-(2-oxyethyl)theophylline]
% Edema Inhibition (carragenin-induced edema; I.P., 5 mg/kg, 3 h): 65,2% | % Edema Inhibition (carragenin-induced edema; I.P., 5 mg/kg, 6 h): 60,5% | % Edema Inhibition (carragenin-induced edema; I.P., 5 mg/kg, 24 h): 10,5% | % Edema Inhibition (carragenin-induced edema; I.P., 10 mg/kg, 3 h): 70,6% | % Edema Inhibition (carragenin-induced edema; I.P., 10 mg/kg, 6 h): 71,3% | % Edema Inhibition (carragenin-induced edema; I.P., 10 mg/kg, 24 h): 15,0% | % Edema Inhibition (carragenin-induced edema; I.P., 2,5 mg/kg, 3 h): 52,0% | % Edema Inhibition (carragenin-induced edema; I.P., 2,5 mg/kg, 6 h): 50,0% | % Edema Inhibition (carragenin-induced edema; I.P., 2,5 mg/kg, 24 h): 5,1% | % Edema Inhibition (carragenin-induced edema; OS, 5 mg/kg, 3 h): 66,0% | % Edema Inhibition (carragenin-induced edema; OS, 5 mg/kg, 6 h): 60,0% | % Edema Inhibition (carragenin-induced edema; OS, 5 mg/kg, 24 h): 12,0% | % Edema Inhibition (carragenin-induced edema; OS, 10 mg/kg, 3 h): 73,0% | % Edema Inhibition (carragenin-induced edema; OS, 10 mg/kg, 6 h): 70,3% | % Edema Inhibition (carragenin-induced edema; OS, 10 mg/kg, 24 h): 20,0% | % Edema Inhibition (carragenin-induced edema; OS, 2,5 mg/kg, 3 h): 56,4% | % Edema Inhibition (carragenin-induced edema; OS, 2,5 mg/kg, 6 h): 53,0% | % Edema Inhibition (carragenin-induced edema; OS, 2,5 mg/kg, 24 h): 10,0% | LD50 (in vivo [1]; ip, I.P.): 140 mg/kg | LD50 (in vivo [1]; po, OS): 160 mg/kg | % incidence 10 (gastric mucosa; 5 mg/kg oral): 8 %/10 | Gastric Damage index, second figure (after +; difference from vehicle) (gastric mucosa; 5 mg/kg oral): 5 | Mean No. lesions (gastric mucosa; 5 mg/kg oral): 2,5 | Mean Severity (gastric mucosa; 5 mg/kg oral): 2,5 | Gastric Damage index (gastric mucosa; 5 mg/kg oral): 13 | % incidence 10 (gastric mucosa; 10 mg/kg oral): 9 %/10 | Gastric Damage index, second figure (after +; difference from vehicle) (gastric mucosa; 10 mg/kg oral): 8 | Mean No. lesions (gastric mucosa; 10 mg/kg oral): 3 | Mean Severity (gastric mucosa; 10 mg/kg oral): 4 | Gastric Damage index (gastric mucosa; 10 mg/kg oral): 16 | % incidence 10 (gastric mucosa; 2,5 mg/kg oral): 7 %/10 | Gastric Damage index, second figure (after +; difference from vehicle) (gastric mucosa; 2,5 mg/kg oral): 2 | Mean No. lesions (gastric mucosa; 2,5 mg/kg oral): 1 | Mean Severity (gastric mucosa; 2,5 mg/kg oral): 2 | Gastric Damage index (gastric mucosa; 2,5 mg/kg oral): 10 | % Inhibition [2, 4]: 31% | % Inhibition [2, 5]: 25% | % Inhibition ([2]; ADP 7.08 μmol/l, dose 1 /ml (Table I)): 20% | % Inhibition ([2]; ADP 7.08 μmol/l, dose 2,5 /ml (Table I)): 70% | % Inhibition ([2]; ADP 7.08 μmol/l, dose 5 /ml (Table I)): 90% | Solubility (Solubility): Soluble in common organic solvents | LD50 (in vivo [3]; ip, I.P.): 100 mg/kg | LD50 (in vivo [3]; po, OS): 150 mg/kg

Cc1ccc(C(=O)c2ccc(CC(=O)OC(Cn3cnc4c3c(=O)n(C)c(=O)n4C)Cn3cnc4c3c(=O)n(C)c(=O)n4C)n2C)cc1 [(F)]
% Edema Inhibition (carragenin-induced edema; I.P., 10 mg/kg, 3 h): 43,8% | % Edema Inhibition (carragenin-induced edema; I.P., 10 mg/kg, 6 h): 34,8% | % Edema Inhibition (carragenin-induced edema; I.P., 10 mg/kg, 24 h): 0,0% | % Edema Inhibition (carragenin-induced edema; I.P., 50 mg/kg, 3 h): 56,0% | % Edema Inhibition (carragenin-induced edema; I.P., 50 mg/kg, 6 h): 33,0% | % Edema Inhibition (carragenin-induced edema; I.P., 50 mg/kg, 24 h): 0,0% | % Edema Inhibition (carragenin-induced edema; I.P., 100 mg/kg, 3 h): 78,6% | % Edema Inhibition (carragenin-induced edema; I.P., 100 mg/kg, 6 h): 65,6% | % Edema Inhibition (carragenin-induced edema; I.P., 100 mg/kg, 24 h): 15,8% | % Edema Inhibition (carragenin-induced edema; OS, 10 mg/kg, 3 h): 23,9% | % Edema Inhibition (carragenin-induced edema; OS, 10 mg/kg, 6 h): 24,0% | % Edema Inhibition (carragenin-induced edema; OS, 10 mg/kg, 24 h): 0,0% | % Edema Inhibition (carragenin-induced edema; OS, 50 mg/kg, 3 h): 47,0% | % Edema Inhibition (carragenin-induced edema; OS, 50 mg/kg, 6 h): 46,0% | % Edema Inhibition (carragenin-induced edema; OS, 50 mg/kg, 24 h): 0,0% | % Edema Inhibition (carragenin-induced edema; OS, 100 mg/kg, 3 h): 66,0% | % Edema Inhibition (carragenin-induced edema; OS, 100 mg/kg, 6 h): 66,0% | % Edema Inhibition (carragenin-induced edema; OS, 100 mg/kg, 24 h): 12,0% | LD50 (in vivo [1]; ip, I.P.): 1240 mg/kg | LD50 (in vivo [1]; po, OS): 1680 mg/kg | % Inhibition [2, 4]: 32% | % Inhibition [2, 5]: 23% | LD50 (in vivo [3]; ip, I.P.): 1050 mg/kg | LD50 (in vivo [3]; po, OS): 1500 mg/kg
